Experimental data reported in PubChem BioAssay (NCI).
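Assay format: 96-well plates, 48-hour exposure. GI50 marks 50% less growth. At the TGI there is no net growth.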

What was measured:
Assay in all cases: inhibition of tumour cell growth, NCI panel, 48 h
COLO 205 colon = system: COLO 205 colon
HS 578T breast = system: HS 578T breast
DLD-1 colon = system: DLD-1 colon
DMS 114 small cell lung = system: DMS 114 small cell lung
DMS 273 small cell lung = system: DMS 273 small cell lung
HOP-18 NSCLC = system: HOP-18 NSCLC
KM20L2 colon = system: KM20L2 colon
LXFL 529 NSCLC = system: LXFL 529 NSCLC
RXF-631 renal = system: RXF-631 renal
SNB-78 CNS = system: SNB-78 CNS
XF 498 CNS = system: XF 498 CNS
M19-MEL melanoma = system: M19-MEL melanoma

O=C(Cn1c2ccc(Br)cc2c2nc3ccccc3nc21)N1CCOCC1
TGI (COLO 205 colon): > 100 µM
TGI (HS 578T breast): > 100 µM

CCOC(=O)c1cc(C2CCN(Cc3ccccc3)C2=O)c(C(=O)/C=C(/C)N)[nH]1 (centres undefined)
TGI (COLO 205 colon): > 100 µM
TGI (HS 578T breast): > 100 µM

O=C(N/N=C\c1ccc(Cl)cc1)Nc1cccc2ccccc12
TGI (COLO 205 colon): > 100 µM
TGI (HS 578T breast): 12 µM

Nc1nc(N)c2c(-c3ccccc3)ccnc2n1
TGI (COLO 205 colon): > 100 µM

Cc1cc(N(CCC#N)CCC#N)ccc1/C=C(\N=[N+]=[N-])C(=O)NC(=O)COc1ccccc1
TGI (COLO 205 colon): > 100 µM
TGI (DLD-1 colon): > 100 µM
TGI (DMS 114 small cell lung): > 100 µM
TGI (DMS 273 small cell lung): > 100 µM
TGI (HOP-18 NSCLC): > 100 µM
TGI (KM20L2 colon): > 100 µM
TGI (LXFL 529 NSCLC): > 100 µM
TGI (RXF-631 renal): > 100 µM
TGI (SNB-78 CNS): > 100 µM
TGI (XF 498 CNS): > 100 µM

C/C(CC(=O)Nc1cccc([N+](=O)[O-])c1)=N/NC(N)=S
TGI (COLO 205 colon): > 100 µM
TGI (DLD-1 colon): > 100 µM
TGI (DMS 114 small cell lung): > 100 µM
TGI (KM20L2 colon): > 100 µM
TGI (LXFL 529 NSCLC): > 100 µM
TGI (M19-MEL melanoma): > 100 µM

CSc1c(S(C)=O)c2ccccc2n1C (centres undefined)
TGI (COLO 205 colon): > 100 µM
TGI (HS 578T breast): > 100 µM

COC(=O)CCc1cc(OC)c2oc(-c3ccc(OC)c(OC)c3)c(CO)c2c1
TGI (COLO 205 colon): > 100 µM
TGI (HS 578T breast): > 100 µM

CC(=O)Oc1ccc(C)c2c1[C@H]1CC[C@]3(C)[C@@H](OC(C)=O)CC[C@H]3[C@@H]1CC2
TGI (HS 578T breast): 47 µM

C=C1C(=O)O[C@H]2C1C[C@H](O)/C(C)=C/CC[C@@]1(C)O[C@H]21 (some centres undefined)
TGI (COLO 205 colon): 18.2 µM
TGI (HS 578T breast): 75.2 µM

CC(=O)c1sc2c(c1OC(=O)c1ccccc1)c(=O)n(-c1ccccc1)c(=S)n2-c1ccccc1
TGI (COLO 205 colon): 30.1 µM
TGI (HS 578T breast): > 30.7 µM

CC1=C(C(=O)NNC(=O)c2ccccc2O)CC(C(=O)NNC(=O)c2ccccc2O)=C(C)N1
TGI (COLO 205 colon): > 86.8 µM
TGI (HS 578T breast): > 100 µM

CN(C)C1(N(C)C)Oc2c(c(=O)n(C)c(=O)n2C)C(c2ccc(F)cc2)C1(F)F (centres undefined)
TGI (COLO 205 colon): > 100 µM

N#C/C(=C\c1ccccc1F)C(=O)c1ccccc1
TGI (COLO 205 colon): > 100 µM
TGI (DMS 114 small cell lung): > 100 µM
TGI (DMS 273 small cell lung): > 100 µM
TGI (KM20L2 colon): > 100 µM
TGI (LXFL 529 NSCLC): > 100 µM
TGI (M19-MEL melanoma): > 100 µM
TGI (SNB-78 CNS): > 100 µM
TGI (XF 498 CNS): > 100 µM

CCOC(=O)C1=C(C)C2C3C(=O)OC(=O)C3C1(C)C1C(=O)OC(=O)C21 (centres undefined)
TGI (COLO 205 colon): > 100 µM
TGI (DLD-1 colon): > 100 µM
TGI (DMS 114 small cell lung): > 100 µM
TGI (DMS 273 small cell lung): > 100 µM
TGI (KM20L2 colon): > 100 µM
TGI (LXFL 529 NSCLC): > 100 µM
TGI (M19-MEL melanoma): > 100 µM
TGI (RXF-631 renal): > 100 µM
TGI (SNB-78 CNS): > 100 µM

CCOC(OCC)[C@@H]1C[C@@H]2N(O[C@H](OC3CCCC3(c3ccccc3)c3ccccc3)[C@H](OC(C)=O)[C@@]2(CC)Cc2ccc(OC)c(OC)c2)O1 (some centres undefined)
TGI (COLO 205 colon): > 100 µM

Cc1ccc(/C=C2\CCS(=O)(=O)c3ccccc3C2=O)cc1
TGI (COLO 205 colon): 30.2 µM
TGI (HS 578T breast): > 100 µM

CC1=NC(=O)CNN1C1=NNC2(C(=O)N1)c1ccccc1-c1ccccc12
TGI (COLO 205 colon): > 100 µM
TGI (HS 578T breast): > 100 µM

CC(C)(Cl)C(Cl)CC/C(CBr)=C(\Cl)CBr (centres undefined)
TGI (COLO 205 colon): 8.1 µM
TGI (HS 578T breast): 4.54 µM

Cc1ccc2nc(-c3nccn3C)cc(C(=O)NC(C)CN(C)C)c2c1 (centres undefined)
TGI (COLO 205 colon): > 100 µM
TGI (HS 578T breast): > 100 µM

CC(C)NC(=O)OCc1c(COC(=O)NC(C)C)c(-c2cc[n+](COC(=O)Cc3ccccc3)cc2)n2c1CCC2
TGI (COLO 205 colon): > 100 µM
TGI (HS 578T breast): > 100 µM

O=C(NCCCN1CCN(CCCNC(=O)c2cc(-c3ccccc3)nc3ccccc23)CC1)c1cc(-c2ccccc2)nc2ccccc12
TGI (COLO 205 colon): > 71.3 µM
TGI (HS 578T breast): 37.1 µM

CCOC(=O)NC(C(F)(F)F)(C(F)(F)F)P(=O)(OCC)OCC
TGI (COLO 205 colon): > 100 µM
TGI (HS 578T breast): > 100 µM

O=C(O)C1Cc2[nH]c3ccccc3c2C2CCCC12 (centres undefined)
TGI (COLO 205 colon): > 100 µM
TGI (DLD-1 colon): > 100 µM
TGI (DMS 114 small cell lung): > 100 µM
TGI (DMS 273 small cell lung): > 100 µM
TGI (KM20L2 colon): > 100 µM
TGI (LXFL 529 NSCLC): > 100 µM
TGI (M19-MEL melanoma): > 100 µM
TGI (SNB-78 CNS): > 100 µM
TGI (XF 498 CNS): > 100 µM

CC(C)(C)C1CCC2c3c([nH]c4ccccc34)C3C(=O)N(c4cc(Cl)ccc4Cl)C(=O)C3C2C1 (centres undefined)
TGI (COLO 205 colon): > 100 µM
TGI (HS 578T breast): > 100 µM

Cc1c2c(n3c(nc4ccccc43)c1C#N)NCC2
TGI (COLO 205 colon): > 10 µM
TGI (HS 578T breast): > 10 µM

O=C(/C=C/c1ccc(O)c(O)c1)c1ccc(O)cc1O
TGI (COLO 205 colon): 31 µM
TGI (DLD-1 colon): 29.3 µM
TGI (DMS 114 small cell lung): 7.55 µM
TGI (DMS 273 small cell lung): 25 µM
TGI (HS 578T breast): 78.8 µM
TGI (KM20L2 colon): 31.3 µM
TGI (M19-MEL melanoma): 27.1 µM
TGI (SNB-78 CNS): 58.3 µM

CC(c1ccccc1)n1c2ccccc2c2c(N)ncnc21 (centres undefined)
TGI (HS 578T breast): 47 µM

Cc1cc(S(=O)(=O)Nc2nnc3c(Cl)cc(C(F)(F)F)cn23)c(S)cc1Cl
TGI (COLO 205 colon): > 100 µM
TGI (HS 578T breast): > 100 µM

COc1c(-c2ccc(F)cc2)oc2c(CC(=O)O)cccc2c1=O
TGI (COLO 205 colon): > 100 µM
TGI (HS 578T breast): > 100 µM

Cc1nc2c(n1Cc1ccc(F)cc1)C(=O)c1ccccc1C2=O
TGI (COLO 205 colon): > 100 µM
TGI (DMS 273 small cell lung): > 100 µM
TGI (KM20L2 colon): > 100 µM
TGI (LXFL 529 NSCLC): > 100 µM
TGI (M19-MEL melanoma): 13.5 µM
TGI (SNB-78 CNS): > 100 µM
TGI (XF 498 CNS): > 100 µM

O=C(O)c1ccc(Nc2nc3ccc(C(F)(F)F)cc3nc2C(=O)O)cc1
TGI (COLO 205 colon): > 100 µM
TGI (HS 578T breast): > 100 µM

O=S1(=O)OCCOS(=O)(=O)C1(Br)Br
TGI (COLO 205 colon): > 100 µM
TGI (DLD-1 colon): > 100 µM
TGI (DMS 114 small cell lung): > 100 µM
TGI (DMS 273 small cell lung): > 100 µM
TGI (LXFL 529 NSCLC): > 100 µM
TGI (M19-MEL melanoma): > 100 µM
TGI (SNB-78 CNS): > 100 µM

COc1cc(Cn2c3ccccc3c3cc(C)cc(OC)c32)cc2c1[nH]c1ccccc12
TGI (COLO 205 colon): > 25 µM
TGI (DLD-1 colon): > 25 µM
TGI (DMS 114 small cell lung): > 25 µM
GI50 (DMS 273 small cell lung): 15.2 µM
TGI (DMS 273 small cell lung): > 25 µM
GI50 (KM20L2 colon): 15.4 µM
TGI (KM20L2 colon): > 25 µM
GI50 (LXFL 529 NSCLC): 17 µM
TGI (LXFL 529 NSCLC): > 25 µM
TGI (M19-MEL melanoma): > 25 µM
TGI (SNB-78 CNS): > 25 µM

Clc1ccc2c(c1)CC1C[N+]3=C(CCCCC3)C1=C2 (centres undefined)
TGI (COLO 205 colon): > 100 µM
TGI (HS 578T breast): > 100 µM

COc1cc2cnc3c4cc(O)ccc4ccc3c2cc1OC
TGI (COLO 205 colon): 59.8 µM
TGI (DLD-1 colon): > 100 µM
TGI (DMS 114 small cell lung): 39.4 µM
TGI (HOP-18 NSCLC): > 100 µM
TGI (KM20L2 colon): > 100 µM
TGI (LXFL 529 NSCLC): > 100 µM
TGI (M19-MEL melanoma): > 100 µM
